Laboratory results from article PMC9652372, “Glycolytic flux control by drugging phosphoglycolate phosphatase” (Nature Communications, 2022).
Residue numbers refer to the chain shown, from its start. Values joined by “and” are separate entries in the source; they are usually repeats but may differ in a detail not shown here. Equal entries are not always repeated.

How the values were obtained:
HT1080 cells = assay: Cell proliferation assay (EdU incorporation); assay type: cell-based, human
Method: Parental HT1080 cells or the indicated CRISPR/Cas9-engineered control (PGP-WT) or PGP-KO cells were grown in complete DMEM. For the expression of PGP-WT or PGP-P127E, cells were transfected with either the pcDNA3 empty vector control or the indicated constructs in pcDNA3 using X-tremeGENE (Roche/Merck), according to the manufacturer’s instructions. […] To assess DNA synthesis, cells were labeled for 2.5 h with 10 μM 5-ethynyl-2'-deoxyuridine (EdU), fixed and permeabilized according to the manufacturer’s recommendations (Click-iT EdU Alexa Fluor 488 imaging kit, Invitrogen/Thermo Fisher). Cells were counterstained with 4′,6-diamidine-2-phenylindole (DAPI), embedded with Fluoromount-G (Thermo Fisher), and imaged on a Nikon TE Eclipse epifluorescence microscope equipped with a 4 × objective and NIS elements software AR 5.02.00. EdU and/or DAPI-positive cells were analyzed using the ImagePro-Plus software version 7.0 (Media Cybernetics). Statistical significance was assessed using GraphPad Prism 9.4.1 software.

murine PGP = target: T1, murine PGP (Mus musculus, UniProt Q8CHP8); assay: SAR: CP1, CP2 and analogs on PGP phosphatase activity (PG); assay type: biochemical; set-up: His6 (N, cleaved yes); made in house; host or cells: Escherichia coli BL21 (DE3), pETM11, co-expressed with groES-groEL-tig
T1 sequence (Q8CHP8 1-321): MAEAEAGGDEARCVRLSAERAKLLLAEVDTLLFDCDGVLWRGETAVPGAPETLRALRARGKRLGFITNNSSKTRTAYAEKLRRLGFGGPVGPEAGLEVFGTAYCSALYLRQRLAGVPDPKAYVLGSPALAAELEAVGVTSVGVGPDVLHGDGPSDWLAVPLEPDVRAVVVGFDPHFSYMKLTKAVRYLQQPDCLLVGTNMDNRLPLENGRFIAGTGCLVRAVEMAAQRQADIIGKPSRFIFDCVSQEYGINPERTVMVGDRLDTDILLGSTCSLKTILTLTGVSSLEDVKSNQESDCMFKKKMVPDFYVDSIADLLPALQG
Method: However, the DMSO concentration was kept constant across each assay. For SAR experiments, all compound stocks were prepared at 10 mM in 100% DMSO. A constant final DMSO concentration of 0.4% was maintained under all conditions, and solvent control samples contained 0.4% DMSO without compounds.
PGP phosphatase activity were assessed using recombinant, purified murine PGP and PG as a

NT5C1A = target: T2, NT5C1A (Homo sapiens, UniProt Q9BXI3); assay: In vitro phosphatase activity assay, NT5C1A (AMP); assay type: biochemical; conditions: DMSO control = 100, read-out: NT5C1A activity on AMP in presence of CP relative to DMSO controls
T2 construct: purchased Origene #TP324617
T2 sequence (Q9BXI3 1-368): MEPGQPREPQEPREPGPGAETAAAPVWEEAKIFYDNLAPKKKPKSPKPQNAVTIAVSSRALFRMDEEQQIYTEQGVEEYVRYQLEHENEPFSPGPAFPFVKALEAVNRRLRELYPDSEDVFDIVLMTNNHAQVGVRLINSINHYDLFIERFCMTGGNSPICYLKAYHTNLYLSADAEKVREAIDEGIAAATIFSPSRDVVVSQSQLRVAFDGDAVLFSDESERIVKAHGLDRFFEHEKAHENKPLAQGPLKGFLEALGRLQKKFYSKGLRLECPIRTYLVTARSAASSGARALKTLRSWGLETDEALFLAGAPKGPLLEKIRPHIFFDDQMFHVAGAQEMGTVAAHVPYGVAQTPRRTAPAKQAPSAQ
Method: Purified human NT5C1A (NM_032526, #TP324617) and purified human PHOSPHO1 (NM_178500, #TP314434) were from Origene. […] Data were analyzed with GraphPad Prism 7.04. […] Data are mean values ± S.E.M. of n=3 independent experiments.

murine PGP-P127E = target: T3, murine PGP-P127E (Mus musculus, UniProt Q8CHP8, P127E); assay: Isothermal titration calorimetry, PGP-P127E; assay type: binding; conditions: ITC
T3 construct: His6 (N, cleaved yes); made in house; host or cells: Escherichia coli BL21 (DE3), pETM-11
T3 sequence (Q8CHP8 1-321 P127E): T1 sequence (Q8CHP8 1-321) with P127E
Method: Purified murine PGP-WT or PGP-P127E was dialyzed overnight against ITC buffer (30 mM HEPES, 30 mM NaCl, 5 mM MgCl2, 1 mM tris(2-carboxyethyl)phosphine/TCEP; pH 7.5). All calorimetric measurements were performed at 25 °C on an ITC200 microcalorimeter (GE Healthcare). Experiments were conducted with a fixed concentration of 2% DMSO. […] To reduce the effects of ligand leakage from the syringe during baseline equilibration, the heat release of a single 1.2 μL injection was recorded prior to the actual titration experiment, and discarded during data analysis with Nitpic 2.0.7[45]. To determine background heats of dilution, control experiments of ligand into buffer, buffer into protein and buffer into buffer titrations were performed.

[1] = LC-MS quantification of intracellular CP1; assay type: in vitro ADME, human; conditions: for Abs. CP1 / Abs. Peak Area, CP1 (neg.): PGP-WT, P5
Method: Cells (~1 million cells/dish) were rinsed in PBS (37 °C), trypsinized, sedimented at 300 × g, 4 °C for 4 min, washed once in PBS (4 °C), and sedimented again at 300 × g, 4 °C for 4 min. Cell pellets were snap-frozen in liquid nitrogen.
Water-soluble metabolites were extracted with 50 µl ice-cold MeOH/H2O (80/20, v/v) containing 0.01 μM lamivudine. After centrifugation of the resulting homogenates, supernatants were transferred to a RP18 SPE (50 mg/1 mL tubes; Phenomenex) that had been activated with 0.5 mL CH3CN and conditioned with 0.5 mL of MeOH/H2O (80/20, v/v). The eluate of the RP18 SPE-column was evaporated in a SpeedVac (Savant, Thermo Fisher Scientific). Dry sample extracts were redissolved in 75 μL 5 mM NH4OAc in CH3CN/H2O (50/50, v/v). Twenty µL of supernatant were transferred to LC-vials. Metabolites were analyzed by LC-MS using the following settings: 3 μL of each sample was applied to an XBridge Premier BEH Amide (2.5 μm particles, 100 × 2.1 mm) UPLC-column (Waters). Metabolites were separated with Solvent A, consisting of 5 mM NH4OAc in CH3CN/H2O (40/60, v/v) and solvent B consisting of 5 mM NH4OAc in CH3CN/H2O (95/5, v/v) at a flow rate of 200 µL/min at 45 °C by LC using a DIONEX Ultimate 3000 UHPLC system (Thermo Fisher Scientific). A linear gradient starting after 2 min with 100% solvent B decreasing to 10% solvent B within 23 min, followed by 16 min 10% solvent B and a linear increase to 100% solvent B in 2 min was applied. Recalibration of the column was achieved by a 7 min prerun with 100% solvent B before each injection. […] All MS-analyses were performed on a high-resolution Q Exactive mass spectrometer equipped with a HESI probe (Thermo Fisher Scientific) in alternating positive- and negative full MS mode with a scan range of 69.0–1000 m/z at 70 K resolution and the following ESI source parameters: Sheath gas: 30, auxiliary gas: 1, sweep gas: 0, aux gas heater temperature: 120 °C, spray voltage: 3 kV, capillary temperature: 320 °C, S-lens RF level: 50. XIC generation and signal quantitation was performed using TraceFinder v3.3 (Thermo Fisher Scientific) integrating peaks which corresponded to the calculated monoisotopic metabolite masses (MIM + /− H + ± 3 mMU). Analyses of PGP-WT and PGP-KO cells were performed in n = 5 biologically independent experiments.

PGP^P127E = target: T4, PGP^P127E (Mus musculus, UniProt Q8CHP8, P127E); conditions: read-out: enzyme activity in presence of CP1 relative to DMSO control (1), mPGP-P127E
T4 sequence (Q8CHP8 1-321 P127E): T1 sequence (Q8CHP8 1-321) with P127E

PGP^172FDPH>YDEQ = target: T5, PGP^172FDPH>YDEQ (Mus musculus, UniProt Q8CHP8, F172Y/H175Q/P174E); conditions: read-out: enzyme activity in presence of CP1 relative to DMSO control (1), mPGP-172FDPH>172YDEQ
T5 sequence (Q8CHP8 1-321 F172Y/P174E/H175Q): T1 sequence (Q8CHP8 1-321) with F172Y, P174E, H175Q

## O=C(Nc1ccccc1C(=O)O)c1ccc(Oc2ccc(C(=O)Nc3ccccc3C(=O)O)cc2)cc1 [CP1]
HT1080 cells; KO C2 CP1 (S)
  Edu-positive/DAPI-positive cells: 47.70% and 42.53% and 47.97%
HT1080 cells; WT D5 CP1 (S)
  Edu-positive/DAPI-positive cells: 47.76% and 46.38% and 44.69%
HT1080 cells; WT D5 EV CP1 (L)
  Edu-positive/DAPI-positive cells: 8.23% and 14.09% and 6.30%
Murine PGP; 40 µM CP, single experiments Exp #1-3
  inhibition of mPGP activity at 40 µM CP compared to DMSO control (%): 92.9348% and 99.7175% and 99.6139%
Murine PGP; CP log[M] -5.09691, read-out: mPGP activity in presence of CP relative to DMSO controls, mPGP on PG (norm.)
  remaining activity at 8 µM: 1.61%
Murine PGP; CP log[M] -5.69897, read-out: mPGP activity in presence of CP relative to DMSO controls, mPGP on PG (norm.)
  remaining activity at 2 µM: 11.3%
Murine PGP; CP log[M] -6, read-out: mPGP activity in presence of CP relative to DMSO controls, mPGP on PG (norm.)
  remaining activity at 1 µM: 24.7%
Murine PGP; CP log[M] -6.30103, read-out: mPGP activity in presence of CP relative to DMSO controls, mPGP on PG (norm.)
  remaining activity at 0.5 µM: 35.5%
Murine PGP; CP log[M] -6.60206, read-out: mPGP activity in presence of CP relative to DMSO controls, mPGP on PG (norm.)
  remaining activity at […]: 66.1%
Murine PGP; CP log[M] -6.90309, read-out: mPGP activity in presence of CP relative to DMSO controls, mPGP on PG (norm.)
  remaining activity at 0.125 µM: 76.3%
Murine PGP; CP log[M] -7.20412, read-out: mPGP activity in presence of CP relative to DMSO controls, mPGP on PG (norm.)
  remaining activity at 0.0625 µM: 88.7%
Murine PGP; CP log[M] -7.50515, read-out: mPGP activity in presence of CP relative to DMSO controls, mPGP on PG (norm.)
  remaining activity at 0.03125 µM: 93%
Murine PGP; CP log[M] -8.10721, read-out: mPGP activity in presence of CP relative to DMSO controls, mPGP on PG (norm.)
  remaining activity at 0.0078125 µM: 101%
NT5C1A; CP log[M] -4.09691
  remaining activity at 80 µM: 12.2%
NT5C1A; CP log[M] -4.22185
  remaining activity at 60 µM: 13.1%
NT5C1A; CP log[M] -4.30103
  remaining activity at 50 µM: 13.1%
NT5C1A; CP log[M] -4.39794
  remaining activity at 40 µM: 16.3%
NT5C1A; CP log[M] -4.52288
  remaining activity at 30 µM: 38.9%
NT5C1A; CP log[M] -4.60206
  remaining activity at 25 µM: 50.7%
NT5C1A; CP log[M] -4.69897
  remaining activity at 20 µM: 57%
NT5C1A; CP log[M] -4.82391
  remaining activity at 15 µM: 83.3%
NT5C1A; CP log[M] -5
  remaining activity at 10 µM: 90.5%
NT5C1A; CP log[M] -5.30103
  remaining activity at 5 µM: 104%
NT5C1A; CP log[M] -5.60206
  remaining activity at […]: 86.9%
Murine PGP-P127E
  n, stoichiometry: 1.15 ± 0.04
Murine PGP-P127E; […]
  Kd: 11.9 ± 0.41 µM
[1]; 100 µM CP1
  less CP1 detected than expected: 39%
[1]; 3h 33 uM CP1
  Abs. CP1: 0.136 pmol and 0.115 pmol and 0.127 pmol
  Abs. Peak Area, CP1 (neg.): 1166078 and 1127449 and 1204353
[1]; 7h 100 uM CP1
  Abs. CP1: 0.229 pmol and 0.231 pmol and 0.241 pmol
  Abs. Peak Area, CP1 (neg.): 2322474 and 2574644 and 2821728
PGP^P127E; CP1 log[M] -4.49, Exp #1-#3
  remaining activity at 32.36 µM: 15%
PGP^P127E; CP1 log[M] -4.80, Exp #1-#3
  remaining activity at 15.85 µM: 27%
PGP^P127E; CP1 log[M] -5.10, Exp #1-#3
  remaining activity at 7.943 µM: 45%
PGP^P127E; CP1 log[M] -5.40, Exp #1-#3
  remaining activity at 3.981 µM: 64%
PGP^P127E; CP1 log[M] -5.70, Exp #1-#3
  remaining activity at 1.995 µM: 80%
PGP^P127E; CP1 log[M] -6.00, Exp #2-#3
  remaining activity at 1 µM: 85%
PGP^P127E; CP1 log[M] -6.30, Exp #1-#3
  remaining activity at 0.5012 µM: 81%
PGP^P127E; CP1 log[M] -6.60, Exp #1-#3
  remaining activity at 0.2512 µM: 94%
PGP^P127E; CP1 log[M] -6.90, Exp #1-#3
  remaining activity at 0.1259 µM: 92%
PGP^172FDPH>YDEQ; CP1 log[M] -4.80, Exp #1-#3
  remaining activity at 15.85 µM: 82%
PGP^172FDPH>YDEQ; CP1 log[M] -5.10, Exp #1-#3
  remaining activity at 7.943 µM: 88%
PGP^172FDPH>YDEQ; CP1 log[M] -5.40, Exp #1-#3
  remaining activity at 3.981 µM: 86%
PGP^172FDPH>YDEQ; CP1 log[M] -5.70, Exp #1-#3
  remaining activity at 1.995 µM: 98%
PGP^172FDPH>YDEQ; CP1 log[M] -6.00, Exp #2-#3
  remaining activity at 1 µM: 97%
PGP^172FDPH>YDEQ; CP1 log[M] -6.30, Exp #1-#3
  remaining activity at 0.5012 µM: 88%
PGP^172FDPH>YDEQ; CP1 log[M] -6.60, Exp #1-#3
  remaining activity at 0.2512 µM: 92%
PGP^172FDPH>YDEQ; CP1 log[M] -6.90, Exp #1-#3
  remaining activity at 0.1259 µM: 86%
